Measured values from US5688787A, “Substituted β-lactam compounds useful as hypochlesterolemic agents and processes for the preparation thereof” (priority 1996, dated 1997).
Read-outs that look alike come from different tables or passages of the source.

Tested on: Hyperlipidemic Hamster
Assay: In Vivo Assay of Hypolipidemic Agents Using the Hyperlipidemic Hamster
Details: Mesocricetus auratus, po, 168 h; for change in vivo at 3 mg/kg: 3 mg/kg once daily oral; for change in vivo at 10 mg/kg: 10 mg/kg once daily oral; for change in vivo at 30 mg/kg: 30 mg/kg once daily oral
Procedure: In Vivo Assay of Hypolipidemic Agents Using the Hyperlipidemic Hamster
Hamsters are separated into groups of six and given a controlled cholesterol diet (Purina Chow #5001 containing 0.5% cholesterol) for seven days. Diet consumption is monitored to determine dietary cholesterol exposure in the face of test compounds. The animals are dosed with the test compound once daily beginning with the initiation of diet. Dosing is by oral gavage of 0.2mL of corn oil alone (control group) or solution (or suspension) of test compound in corn oil. All animals roodbund or in poor physical condition are euthanized. After seven days, the animals are anesthetized by IM injection of ketamine and sacrificed by decapitation. Blood is collected into vacutainer tubes containing EDTA for plasma lipid analysis and the liver excised for tissue lipid analysis. Data is reported as percent reduction of lipid versus control.
Using the test procedures described above, the following in vitro and in vivo data were obtained for the preferred compounds, which are referred to in the following table by the corresponding example numbers. For the in vitro ACAT data, negative percent inhibition denotes apparent stimulation,while positive numbers denote inhibition. For the in vivo results, data is reported as percent change versus control, therefore, negative numbers indicate a positive lipid-lowering effect.

[1] = 50 mg/kg once daily oral, 7 days, percent change versus control, negative = lowering, read-out: % Reduction (in vivo) Cholest. Esters
[2] = 50 mg/kg once daily oral, 7 days, percent change versus control, negative = lowering, read-out: % Reduction (in vivo) Serum Cholest.
[3] = read-out: % Reduction (in vivo) Cholest. Esters
[4] = read-out: % Reduction (in vivo) Serum Cholest.
[5] = 7 days, percent change versus control, negative = lowering, read-out: % Reduction (in vivo) Cholest. Esters
[6] = 7 days, percent change versus control, negative = lowering, read-out: % Reduction (in vivo) Serum Cholest.

`COc1ccc([C@@H]2[C@@H](CCCc3ccccc3)C(=O)N2c2cccnc2)cc1` (relative stereo) [Example 1AM] was tested, and the change in vivo at 50 mg/kg [1] was -29% and the change in vivo at 50 mg/kg [2] was -12%.

`COc1ccc([C@@H]2[C@@H](CCCc3ccccc3)C(=O)N2c2ccc(OC(F)(F)F)cc2)cc1` (relative stereo) [Example 1AN] was tested, and the change in vivo at 50 mg/kg [1] was -85% and the change in vivo at 50 mg/kg [2] was -34%.

In the case of `COc1ccc([C@H]2[C@@H](CCCc3ccccc3)C(=O)N2c2ccc(Cl)cc2)cc1` (relative stereo) [Example 1AO], the change in vivo at 50 mg/kg [1] is reported as -78% and the change in vivo at 50 mg/kg [2] is reported as -33%.

In the case of `COc1ccc([C@H]2[C@@H](CCCc3ccccc3)C(=O)N2c2ccc(C)cc2)cc1` (relative stereo) [Example 1AP], the change in vivo at 50 mg/kg [1] is reported as -95% and the change in vivo at 50 mg/kg [2] is reported as -51%.

In the case of `COc1ccc([C@H]2[C@@H](CCCc3ccccc3)C(=O)N2c2ccc(Oc3ccccc3)cc2)cc1` (relative stereo) [Example 1AQ], the change in vivo at 50 mg/kg [1] is reported as -22% and the change in vivo at 50 mg/kg [2] is reported as -20%.

Compound `COc1ccc(N2C(=O)[C@H](CCCc3ccccc3)[C@H]2c2nccn2COCC[Si](C)(C)C)cc1` (relative stereo) [Example 1AV] has a change in vivo at 50 mg/kg [3] of 0% and a change in vivo at 50 mg/kg [4] of 15%.

`COc1ccc(N2C(=O)[C@H](CCCc3ccccc3)[C@@H]2c2nccn2COCC[Si](C)(C)C)cc1` (relative stereo) [Example 1AW] showed a change in vivo at 50 mg/kg [3] of -16% and a change in vivo at 50 mg/kg [4] of -14%.

Work on `COc1ccc(N2C(=O)[C@H](CCCc3ccccc3)[C@@H]2c2ccc(OC(C)C)cc2)cc1` (relative stereo) [Example 1AY] yielded a change in vivo at 50 mg/kg [1] of -78% and a change in vivo at 50 mg/kg [2] of -28%.

`CCCOc1ccc([C@H]2[C@@H](CCCc3ccccc3)C(=O)N2c2ccc(OC)cc2)cc1` (relative stereo) [Example 1AZ] was tested, and the change in vivo at 50 mg/kg [1] was -91% and the change in vivo at 50 mg/kg [2] was -37%.

For `COc1ccc(N2C(=O)[C@H](CCCc3ccccc3)[C@@H]2c2ccc(OC)c(C)c2)cc1` (relative stereo) [Example 1BA], the change in vivo at 50 mg/kg [1] was 0% and the change in vivo at 50 mg/kg [2] was 0%.

`CCCCOc1ccc([C@H]2[C@@H](CCCc3ccccc3)C(=O)N2c2ccc(OC)cc2)cc1` (relative stereo) [Example 1BR] gave a change in vivo at 50 mg/kg [1] of -70% and a change in vivo at 50 mg/kg [2] of -15%.

`COc1ccc(N2C(=O)[C@H](CCCc3ccccc3)[C@@H]2c2ccc(Oc3ccccc3)cc2)cc1` (relative stereo) [Example 1BS] showed a change in vivo at 50 mg/kg [1] of -43% and a change in vivo at 50 mg/kg [2] of 0%.

Compound `COc1ccc(N2C(=O)[C@H](CCCc3ccccc3)[C@@H]2c2ccc(-c3ccccc3)cc2)cc1` (relative stereo) [Example 1BT] has a change in vivo at 50 mg/kg [1] of 0% and a change in vivo at 50 mg/kg [2] of 0%.

Compound `C=CCOc1ccc([C@H]2[C@@H](CCCc3ccccc3)C(=O)N2c2ccc(OC)cc2)cc1` (relative stereo) [Example 1BU] has a change in vivo at 50 mg/kg [1] of -95% and a change in vivo at 50 mg/kg [2] of -39%.

`COc1ccc(N2C(=O)[C@H](CCCc3ccccc3)[C@@H]2c2cc(OC)c(OC)c(OC)c2)cc1` (relative stereo) [Example 1BV] was tested, and the change in vivo at 50 mg/kg [1] was 0% and the change in vivo at 50 mg/kg [2] was -11%.

For `COc1ccc(N2C(=O)[C@H](CCCc3ccccc3)[C@@H]2c2cn(C)c3ccccc23)cc1` (relative stereo) [Example 1BW], the change in vivo at 50 mg/kg [1] was -29% and the change in vivo at 50 mg/kg [2] was -9%.

Compound `COc1ccc(N2C(=O)[C@H](CCCc3ccccc3)[C@@H]2c2ccnc3ccccc23)cc1` (relative stereo) [Example 1BX] has a change in vivo at 50 mg/kg [1] of 0% and a change in vivo at 50 mg/kg [2] of 0%.

Compound `CCOc1ccc([C@H]2[C@@H](CCCc3ccccc3)C(=O)N2c2ccccc2)cc1` (relative stereo) [Example 1BY] has a change in vivo at 50 mg/kg [1] of -72% and a change in vivo at 50 mg/kg [2] of -18%.

Work on `COc1ccc(N2C(=O)[C@H](CCCc3ccccc3)[C@@H]2c2cc3ccccc3o2)cc1` (relative stereo) [Example 1BZ] yielded a change in vivo at 50 mg/kg [1] of 0% and a change in vivo at 50 mg/kg [2] of -9%.

In the case of `COc1ccc(N2C(=O)[C@@H](CCCc3ccccc3)[C@@H]2c2cc3ccccc3o2)cc1` (relative stereo) [Example 1CA], the change in vivo at 50 mg/kg [1] is reported as 0% and the change in vivo at 50 mg/kg [2] is reported as -12%.

For `COc1ccc([C@H]2[C@@H](CCCc3ccccc3)C(=O)N2c2ccc(O[Si](C)(C)C(C)(C)C)cc2)cc1` (relative stereo) [Example 1CB], the change in vivo at 50 mg/kg [3] was 0% and the change in vivo at 50 mg/kg [4] was 0%.

Compound `COc1ccc([C@H]2[C@@H](CCOc3ccc(F)cc3)C(=O)N2c2ccccc2)cc1` (relative stereo) [Example 1CH] has a change in vivo at 3 mg/kg [5] of -80%, a change in vivo at 3 mg/kg [6] of -24% and a change in vivo at 10 mg/kg [5] of -90%. For the same compound, the change in vivo at 10 mg/kg [6] was -41%, the change in vivo at 50 mg/kg [1] was -95% and the change in vivo at 50 mg/kg [2] was -49%.

With `COc1ccc([C@@H]2[C@H](N(C)C)C(=O)N2c2ccccc2)cc1` (relative stereo) [Example 1CJ] the change in vivo at 50 mg/kg [1] was 0% and the change in vivo at 50 mg/kg [2] was 0%.

In the case of `COc1ccc(N2C(=O)[C@@H](CCCc3ccccc3)[C@@H]2c2ccc(SC)cc2)cc1` (relative stereo) [Example 1CM], the change in vivo at 50 mg/kg [1] is reported as 0% and the change in vivo at 50 mg/kg [2] is reported as 0%.

`COc1ccc([C@@H]2[C@@H](CCOc3ccc(F)cc3)C(=O)N2c2ccc(OC)cc2)cc1` (relative stereo) [Example 5AA] was tested, and the change in vivo at 50 mg/kg [1] was -93% and the change in vivo at 50 mg/kg [2] was -53%.

`COc1ccc([C@@H]2[C@@H](CCCc3ccccc3)C(=O)N2c2ccc(F)cc2)cc1` (relative stereo) [Example 5D] gave a change in vivo at 10 mg/kg [5] of -77%, a change in vivo at 10 mg/kg [6] of -24% and a change in vivo at 30 mg/kg [5] of -94%. The change in vivo at 30 mg/kg [6] was -41%, the change in vivo at 50 mg/kg [1] was -95% and the change in vivo at 50 mg/kg [2] was -38%.

In the case of `COc1ccc([C@@H]2[C@@H](CCCc3ccccc3)C(=O)N2c2cccc(OC)c2)cc1` (relative stereo) [Example 5E], the change in vivo at 50 mg/kg [1] is reported as -91% and the change in vivo at 50 mg/kg [2] is reported as -38%.

Compound `COc1ccc([C@@H]2[C@@H](CCCc3ccccc3)C(=O)N2c2ccc(Cl)cc2)cc1` (relative stereo) [Example 5G] has a change in vivo at 50 mg/kg [1] of -93% and a change in vivo at 50 mg/kg [2] of -44%.

`CCOc1ccc(N2C(=O)[C@H](CCCc3ccccc3)[C@H]2c2ccc(OC)cc2)cc1` (relative stereo) [Example 5H] was tested, and the change in vivo at 50 mg/kg [1] was -96% and the change in vivo at 50 mg/kg [2] was -57%.

Compound `COc1ccc([C@@H]2[C@@H](CCCc3ccccc3)C(=O)N2c2ccc(SC)cc2)cc1` (relative stereo) [Example 5I] has a change in vivo at 50 mg/kg [1] of -70% and a change in vivo at 50 mg/kg [2] of -26%.

In the case of `COc1ccc([C@@H]2[C@@H](CCCc3ccccc3)C(=O)N2c2ccc(C)cc2)cc1` (relative stereo) [Example 5J], the change in vivo at 50 mg/kg [1] is reported as -90% and the change in vivo at 50 mg/kg [2] is reported as -38%.

Work on `COc1ccc(N2C(=O)[C@H](CCCc3ccccc3)[C@H]2c2ccc(OCc3ccccc3)cc2)cc1` (relative stereo) [Example 5T] yielded a change in vivo at 50 mg/kg [1] of -48% and a change in vivo at 50 mg/kg [2] of -15%.

With `C=CCOc1ccc([C@@H]2[C@@H](CCCc3ccccc3)C(=O)N2c2ccc(OC)cc2)cc1` (relative stereo) [Example 5U] the change in vivo at 50 mg/kg [1] was -86% and the change in vivo at 50 mg/kg [2] was -48%.

Compound `COc1ccc(N2C(=O)[C@H](CCCc3ccccc3)[C@H]2c2ccc(Oc3ccccc3)cc2)cc1` (relative stereo) [Example 5V] has a change in vivo at 50 mg/kg [1] of -77% and a change in vivo at 50 mg/kg [2] of -37%.
